These results are taken from patent EP1976513B1 (priority 2006, dated 2007).

Counter-ions that a name gives are not always drawn. Like-named read-outs stand apart in the source and are kept apart here.

For orientation: IC50 means the point on the concentration scale where inhibition reaches its midpoint.

Assay [1] addresses human serotonin reuptake transporter (Homo sapiens, UniProt P31645). In words: cell-based. The conditions noted are these: recombinant human serotonin transporter (SERT).
In assay [2] the target is T1, human dopamine reuptake transporter (Homo sapiens, UniProt Q01959).
T1 construct: expressed in transfected cells; host or cells: CHO-K1 or HEK293
In words: cell-based. The conditions noted are these: recombinant human dopamine transporter (DAT); read-out: Human IC50 (nM) hDAT.

The target in assay [3] is human norepinephrine reuptake transporter (Homo sapiens, UniProt P23975). The experiment in a line: cell-based. The settings on record: recombinant human norepinephrine transporter (NET); read-out: Human IC50 (nM) hNET.
The target of assay [4] is T2, serotonin transporter (Rattus norvegicus, UniProt P31652).
T2 construct: synaptosomes isolated in a 0.32M sucrose buffer from a male Wistar rat cortex; from tissue; host or cells: male Wistar rat cortex synaptosomes
The experiment in a line: biochemical.

The target of assay [5] is T3, dopamine transporter (Rattus norvegicus, UniProt P23977).
T3 construct: synaptosomes isolated in a 0.32 M sucrose buffer from a male Wistar rat striatum; from tissue; host or cells: male Wistar rat striatum synaptosomes
In words: biochemical.

For assay [6], the target named is T4, norepinephrine transporter (Rattus norvegicus, UniProt Q63380).
T4 construct: synaptosomes isolated in a 0.32 M sucrose buffer from a male Wistar rat hypothalamus; from tissue; host or cells: male Wistar rat hypothalamus synaptosomes
The experiment in a line: biochemical. Type of assay: biochemical. The conditions noted are these: rat synaptosomes, norepinephrine transporter (NET).

Assay [7] concerns the target T5, 5-HT Transporter (SERT) Sites in Mouse Brain (Mus musculus, UniProt Q60857).
T5 construct: Whole brains were removed and cortex and striata dissected out; from tissue; host or cells: C57BL/6 mouse frontal cortex homogenate
The experiment in a line: Ex vivo [3H] citalopram binding after oral dosing. Further details: species or system C57BL/6 mice. The conditions noted are these: for % Transporter Occupancy, SERT: 60 minutes after treatment, vs vehicle; for Mean Specific Binding (dpm) ± S.E.M., SERT: mice sacrificed 60 minutes after treatment, cortex.

Assay [8] deals with T6, DA Transporter (DAT) Sites in Mouse Brain (Mus musculus, UniProt Q61327).
T6 construct: Striatum was used to determine occupancy of DA transporter sites; from tissue; host or cells: C57BL/6 mouse striatum homogenate
The experiment in a line: Ex vivo [3H] WIN 35428 binding after oral dosing. The arrangement: species or system C57BL/6 mice. The settings on record: for % Transporter Occupancy, DAT: 60 minutes after treatment, vs vehicle; for Mean Specific Binding (dpm) ± S.E.M., DAT: mice sacrificed 60 minutes after treatment, striatum.

For assay [9], the system named is mice. In words: Mouse locomotor activity. Type of assay: in vivo. The conditions noted are these: PO. On the procedure: (§1) In order to ensure effects of the compounds on immobility time were not related to a general stimulant effect on baseline motor activity, locomotor activity was assessed using photocell monitored cages (Med-Associates Inc.). Each test chamber was equipped with infrared photocell beams to measure movement of the animals. Horizontal and vertical activity were measured
(§2) Rats or mice were pretreated with vehicle or test compounds and placed back in home cage, following which they will be individually placed in locomotor cages and activity was monitored in 5 minute intervals for up to 60 min.
(§3) Data were analyzed by one way analysis of variance (ANOVA) followed by post-hoc comparisons where appropriate. An effect was considered significant if p < 0.05. Data are represented as the mean and standard error to the mean (s.e.m).

For assay [10], the system named is Rats. In words: Rat locomotor activity. Type of assay: in vivo. The conditions noted are these: PO. The procedure: as §1, §2, §3
For assay [11], the target named is Norepinephrine Transporter (NET) Sites in Mouse Brain (Mus musculus, UniProt O55192). The conditions noted are these: PO; for % Transporter Occupancy, NET: 60 minutes after treatment, vs vehicle; for Mean Specific Binding (dpm) ± S.E.M., NET: mice sacrificed 60 minutes after treatment, cortex.
The mark [12] stands for this setting: read-out: Human IC50 (nM) hSERT.
Where [13] appears, read: rat synaptosomes, serotonin transporter (SERT); read-out: Rat IC50 (nM) rSERT.
The mark [14] stands for this setting: rat synaptosomes, dopamine transporter (DAT); read-out: Rat IC50 (nM) rDAT.
[15] abbreviates: read-out: Rat IC50 (nM) rSERT; rat synaptosomes, serotonin transporter (SERT).
Setting [16] is: read-out: Rat IC50 (nM) rDAT; rat synaptosomes, dopamine transporter (DAT).
[17] abbreviates: Rat IC50 (nM) rSERT, rat synaptosomes, serotonin transporter (SERT).
Where [18] appears, read: Rat IC50 (nM) rDAT, rat synaptosomes, dopamine transporter (DAT).

Norepinephrine Transporter (NET) Sites in Mouse Brain, sequence (O55192 whole entry): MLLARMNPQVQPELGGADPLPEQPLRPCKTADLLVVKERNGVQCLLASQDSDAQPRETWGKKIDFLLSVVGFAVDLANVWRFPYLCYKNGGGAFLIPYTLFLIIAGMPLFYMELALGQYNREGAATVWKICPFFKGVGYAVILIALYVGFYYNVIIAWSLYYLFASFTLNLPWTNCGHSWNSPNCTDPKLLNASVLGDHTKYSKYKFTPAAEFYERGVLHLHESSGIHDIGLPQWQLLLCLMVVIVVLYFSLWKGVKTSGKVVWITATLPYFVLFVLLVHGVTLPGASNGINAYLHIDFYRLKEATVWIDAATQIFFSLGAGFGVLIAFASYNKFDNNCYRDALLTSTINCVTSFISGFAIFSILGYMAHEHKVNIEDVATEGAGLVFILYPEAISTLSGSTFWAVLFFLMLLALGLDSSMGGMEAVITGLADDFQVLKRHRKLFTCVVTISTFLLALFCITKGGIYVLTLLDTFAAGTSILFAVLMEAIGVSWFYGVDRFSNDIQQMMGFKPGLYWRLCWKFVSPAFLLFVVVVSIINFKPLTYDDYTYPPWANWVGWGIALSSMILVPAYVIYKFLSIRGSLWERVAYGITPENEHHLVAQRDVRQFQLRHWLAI
T2 sequence (P31652 whole entry): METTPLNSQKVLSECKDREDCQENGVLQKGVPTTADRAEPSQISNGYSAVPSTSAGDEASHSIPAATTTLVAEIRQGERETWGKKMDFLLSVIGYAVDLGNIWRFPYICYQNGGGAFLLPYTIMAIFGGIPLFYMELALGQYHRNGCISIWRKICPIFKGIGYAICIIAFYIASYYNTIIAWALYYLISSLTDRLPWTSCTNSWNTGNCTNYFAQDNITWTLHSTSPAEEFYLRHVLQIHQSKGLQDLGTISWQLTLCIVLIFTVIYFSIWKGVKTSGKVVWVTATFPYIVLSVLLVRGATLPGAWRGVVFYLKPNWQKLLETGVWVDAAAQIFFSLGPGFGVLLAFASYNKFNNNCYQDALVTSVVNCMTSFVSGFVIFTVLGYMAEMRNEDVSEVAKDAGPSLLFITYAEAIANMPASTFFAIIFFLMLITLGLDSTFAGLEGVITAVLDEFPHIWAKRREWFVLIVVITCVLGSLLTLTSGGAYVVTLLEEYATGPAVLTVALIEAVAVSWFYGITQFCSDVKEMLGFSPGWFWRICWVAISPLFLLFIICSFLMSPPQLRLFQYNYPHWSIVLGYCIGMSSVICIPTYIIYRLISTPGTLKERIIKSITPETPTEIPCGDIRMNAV
human serotonin reuptake transporter, sequence (P31645 whole entry): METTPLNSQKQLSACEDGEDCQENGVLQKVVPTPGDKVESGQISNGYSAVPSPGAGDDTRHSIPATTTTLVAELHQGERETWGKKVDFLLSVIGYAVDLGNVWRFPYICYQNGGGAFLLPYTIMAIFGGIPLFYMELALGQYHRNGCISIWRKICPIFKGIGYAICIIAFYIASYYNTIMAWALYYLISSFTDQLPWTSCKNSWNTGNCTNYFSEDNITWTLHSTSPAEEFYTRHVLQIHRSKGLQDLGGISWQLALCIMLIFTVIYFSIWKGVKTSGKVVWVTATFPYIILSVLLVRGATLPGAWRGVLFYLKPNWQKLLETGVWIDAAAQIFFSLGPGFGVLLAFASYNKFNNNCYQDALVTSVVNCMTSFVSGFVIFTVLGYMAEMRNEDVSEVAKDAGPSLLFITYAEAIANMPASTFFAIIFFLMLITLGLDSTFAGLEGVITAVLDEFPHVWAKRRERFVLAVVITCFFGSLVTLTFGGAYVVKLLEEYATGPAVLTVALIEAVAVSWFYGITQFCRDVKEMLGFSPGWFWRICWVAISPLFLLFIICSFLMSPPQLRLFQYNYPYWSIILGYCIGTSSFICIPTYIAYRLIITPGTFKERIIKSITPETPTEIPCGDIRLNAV
T3 sequence (P23977 whole entry): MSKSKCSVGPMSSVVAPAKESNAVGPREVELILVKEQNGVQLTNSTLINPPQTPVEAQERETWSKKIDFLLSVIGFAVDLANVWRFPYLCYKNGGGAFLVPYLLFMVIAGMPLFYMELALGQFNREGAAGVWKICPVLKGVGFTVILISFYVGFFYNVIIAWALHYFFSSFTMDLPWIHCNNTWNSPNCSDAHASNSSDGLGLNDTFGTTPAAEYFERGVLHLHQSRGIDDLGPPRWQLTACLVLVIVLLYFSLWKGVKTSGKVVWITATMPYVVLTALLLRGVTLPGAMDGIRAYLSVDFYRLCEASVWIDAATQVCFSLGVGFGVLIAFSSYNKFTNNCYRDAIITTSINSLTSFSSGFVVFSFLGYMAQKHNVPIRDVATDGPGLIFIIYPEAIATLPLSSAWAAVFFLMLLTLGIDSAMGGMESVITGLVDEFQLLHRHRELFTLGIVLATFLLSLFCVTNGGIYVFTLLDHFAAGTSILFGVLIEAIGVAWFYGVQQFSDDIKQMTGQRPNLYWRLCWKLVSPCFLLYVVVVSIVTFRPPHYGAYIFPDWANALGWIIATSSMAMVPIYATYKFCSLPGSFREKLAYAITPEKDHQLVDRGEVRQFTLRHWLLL
T5 sequence (Q60857 whole entry): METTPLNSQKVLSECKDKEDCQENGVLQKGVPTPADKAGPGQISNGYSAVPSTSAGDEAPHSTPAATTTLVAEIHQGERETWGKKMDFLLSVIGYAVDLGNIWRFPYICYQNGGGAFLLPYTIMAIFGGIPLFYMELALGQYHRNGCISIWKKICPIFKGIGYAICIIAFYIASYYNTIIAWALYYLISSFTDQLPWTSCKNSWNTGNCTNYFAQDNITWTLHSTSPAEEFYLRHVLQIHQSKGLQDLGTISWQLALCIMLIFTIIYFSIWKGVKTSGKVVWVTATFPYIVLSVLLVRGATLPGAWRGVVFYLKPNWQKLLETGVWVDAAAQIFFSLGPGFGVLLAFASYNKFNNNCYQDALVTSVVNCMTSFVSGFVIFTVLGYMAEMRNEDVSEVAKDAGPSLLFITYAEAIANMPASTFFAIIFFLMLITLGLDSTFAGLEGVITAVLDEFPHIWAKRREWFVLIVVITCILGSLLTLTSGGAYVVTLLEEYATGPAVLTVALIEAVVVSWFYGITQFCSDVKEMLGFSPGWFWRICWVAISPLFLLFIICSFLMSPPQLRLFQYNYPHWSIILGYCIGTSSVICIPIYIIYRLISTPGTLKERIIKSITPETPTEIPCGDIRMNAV
T1 sequence (Q01959 whole entry): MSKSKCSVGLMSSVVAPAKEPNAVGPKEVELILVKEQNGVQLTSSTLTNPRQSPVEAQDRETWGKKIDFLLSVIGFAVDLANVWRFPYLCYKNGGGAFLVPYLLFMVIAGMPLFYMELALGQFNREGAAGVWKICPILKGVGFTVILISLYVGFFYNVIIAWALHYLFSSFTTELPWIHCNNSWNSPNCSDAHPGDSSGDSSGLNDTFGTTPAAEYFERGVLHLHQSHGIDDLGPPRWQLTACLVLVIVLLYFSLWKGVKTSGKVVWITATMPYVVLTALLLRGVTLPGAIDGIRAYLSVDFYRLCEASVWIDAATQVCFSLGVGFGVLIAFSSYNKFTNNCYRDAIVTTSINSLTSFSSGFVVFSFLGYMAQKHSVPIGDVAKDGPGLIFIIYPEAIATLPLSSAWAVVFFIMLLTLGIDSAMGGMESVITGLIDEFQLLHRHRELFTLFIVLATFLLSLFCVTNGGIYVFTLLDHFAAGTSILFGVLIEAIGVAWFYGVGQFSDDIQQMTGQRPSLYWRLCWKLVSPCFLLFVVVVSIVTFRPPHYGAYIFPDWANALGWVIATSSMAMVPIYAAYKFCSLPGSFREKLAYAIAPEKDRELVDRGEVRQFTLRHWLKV
T4 sequence (Q63380 1-617): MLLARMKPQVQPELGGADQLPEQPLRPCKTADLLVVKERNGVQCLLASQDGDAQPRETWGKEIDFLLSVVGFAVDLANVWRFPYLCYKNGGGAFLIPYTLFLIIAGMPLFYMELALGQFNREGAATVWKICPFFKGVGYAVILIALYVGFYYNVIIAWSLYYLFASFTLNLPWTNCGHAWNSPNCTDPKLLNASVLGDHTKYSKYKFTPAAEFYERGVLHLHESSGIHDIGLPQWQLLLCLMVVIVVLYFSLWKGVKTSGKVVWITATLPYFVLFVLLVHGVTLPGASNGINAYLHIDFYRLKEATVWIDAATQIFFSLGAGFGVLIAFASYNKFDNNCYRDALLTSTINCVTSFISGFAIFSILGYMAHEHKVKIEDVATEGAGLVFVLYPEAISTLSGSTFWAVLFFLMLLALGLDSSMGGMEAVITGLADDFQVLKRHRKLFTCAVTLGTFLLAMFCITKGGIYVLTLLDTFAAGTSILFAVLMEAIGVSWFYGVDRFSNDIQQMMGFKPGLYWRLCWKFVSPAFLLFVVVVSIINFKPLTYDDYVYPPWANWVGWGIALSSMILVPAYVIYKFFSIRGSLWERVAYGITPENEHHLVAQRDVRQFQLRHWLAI
T6 sequence (Q61327 whole entry): as the sequence (P23977 whole entry) above, with S21P, A57V, A194S, H600R, L619V counted along it
human norepinephrine reuptake transporter, sequence (P23975 whole entry): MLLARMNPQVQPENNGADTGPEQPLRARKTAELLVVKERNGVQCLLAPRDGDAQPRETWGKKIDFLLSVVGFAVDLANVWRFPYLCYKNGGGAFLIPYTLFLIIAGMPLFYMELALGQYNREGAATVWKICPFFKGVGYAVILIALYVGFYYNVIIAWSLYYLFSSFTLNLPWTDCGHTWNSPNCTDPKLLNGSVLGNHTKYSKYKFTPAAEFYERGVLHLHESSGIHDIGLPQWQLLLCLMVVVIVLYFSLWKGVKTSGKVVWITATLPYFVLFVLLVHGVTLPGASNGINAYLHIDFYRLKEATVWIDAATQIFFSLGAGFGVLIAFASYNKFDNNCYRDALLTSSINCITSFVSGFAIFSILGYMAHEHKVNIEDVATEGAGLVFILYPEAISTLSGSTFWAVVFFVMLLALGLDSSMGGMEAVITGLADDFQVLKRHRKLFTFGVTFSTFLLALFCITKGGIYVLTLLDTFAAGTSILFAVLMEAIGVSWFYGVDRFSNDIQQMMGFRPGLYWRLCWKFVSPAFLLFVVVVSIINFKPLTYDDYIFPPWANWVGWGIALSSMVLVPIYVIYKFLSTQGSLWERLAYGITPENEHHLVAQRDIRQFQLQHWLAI

Consider `NCC1(c2ccccc2)CCCCC1` [Compound 31, (1-phenylcyclohexyl)methaneamine hydrochloride], for which the IC50 in assay [1] (setting [12]), in assay [2] and in assay [3] was more than 10000 nM in each case.
For `COC1CCC(CN(C)C)(c2ccc(Cl)c(Cl)c2)CC1` (stereo not drawn) [Compound 256, 1-(1-(3,4-dichlorophenyl)-4-methoxycyclohexyl)-N,N-dimethylmethanamine], the IC50 in assay [4] (setting [13]) was 280 nM; in assay [1] (setting [12]), 69 nM; in assay [5] (setting [14]), 990 nM; in assay [2], 157 nM.
As to `CNCC1(c2ccccc2)CCCCC1` [Compound 80, N-methyl(1-phenylcyclohexyl)methanamine (hydrochloride)], the IC50 in [1] (setting [12]) was 9170 nM; in assay [2], more than 10000 nM; in assay [3] it was more than 10000 nM.
Take `CNCC1(c2ccc(OC(F)(F)F)cc2)CCC(O)CC1` (stereo not drawn) [Compound 249, 4-((methylamino)methyl)-4-(4-(trifluoromethoxy)phenyl)cyclohexanol]: the IC50 in [1] (setting [12]) was 405 nM; in assay [2], more than 10000 nM; in [3], more than 10000 nM.
`CNC[C@]1(c2ccc3ccccc3c2)CCCC[C@@H]1O` (single isomer, unassigned) [147 E2]: the IC50 in assay [4] (setting [15]) is 1700 nM; in assay [5] (setting [16]), 1500 nM; in assay [6] (read-out: Rat IC50 (nM) rNET), 1200 nM.
Take `CNC[C@@]1(c2ccc3ccccc3c2)CCCC[C@@H]1O` (single isomer, unassigned) [148 E2]: the IC50 is 330 nM in [4] (setting [15]), 680 nM in [5] (setting [16]) and 4900 nM in [6] (read-out: Rat IC50 (nM) rNET).
Regarding `CN(C)CC1(c2ccc(Cl)c(Cl)c2)CCC(C)(O)CC1` (stereo not drawn) [Compound 277, 4-(3,4-dichlorophenyl)-4-((dimethylamino)methyl)-1-methylcyclohexanol], the values for the IC50 in [4] (setting [17]), in assay [1] (setting [12]) and in assay [5] (setting [18]) were 42 nM, 34 nM and 43 nM, respectively. Also, the “% Transporter Occupancy, SERT” value is -6% in [7] (1 mg/kg), -5% in assay [7] (3 mg/kg), 0% in assay [7] (10 mg/kg) and 3% in [7] (30 mg/kg). The “Mean Specific Binding (dpm) ± S.E.M., SERT” value is given as 1508 ± 86 dpm in assay [7] (1 mg/kg), 1491 ± 75 dpm in [7] (3 mg/kg), 1416 ± 43 dpm in assay [7] (10 mg/kg) and 1384 ± 101 dpm in assay [7] (30 mg/kg). In addition, the “% Transporter Occupancy, DAT” value in [8] (1 mg/kg) is given as 17%; in assay [8] (3 mg/kg) it was 21%; in [8] (10 mg/kg) it was 23%; in assay [8] (30 mg/kg) it was 26%. For the same molecule, the “Mean Specific Binding (dpm) ± S.E.M., DAT” value in assay [8] (1 mg/kg) worked out at 35827 ± 2302 dpm; in assay [8] (3 mg/kg) it was 34136 ± 4104 dpm; in assay [8] (10 mg/kg) it was 33230 ± 2807 dpm; in assay [8] (30 mg/kg) it was 31743 ± 4406 dpm. Further, the “Mouse Locomotor Activity Total Distance Traveled ± S.E.M.” value turned out to be 418.8 ± 80.6 in assay [9] (3 mg/kg), 411.8 ± 87.8 in assay [9] (10 mg/kg) and 327.7 ± 67.1 in assay [9] (30 mg/kg). The “Rat Locomotor Activity Total Distance Traveled ± S.E.M.” value in [10] (3 mg/kg) was 1406.2 ± 84.9; in assay [10] (10 mg/kg), 1861.4 ± 187.8; in assay [10] (30 mg/kg) it was 2612.4 ± 210.8. The “% Transporter Occupancy, NET” value is on record as 6% in assay [11] (1 mg/kg), 18% in [11] (3 mg/kg), 47% in [11] (10 mg/kg) and 71% in assay [11] (30 mg/kg). For the same molecule, the “Mean Specific Binding (dpm) ± S.E.M., NET” value in assay [11] (1 mg/kg) amounted to 950 ± 46 dpm; in assay [11] (3 mg/kg), 824 ± 30 dpm; in assay [11] (10 mg/kg), 533 ± 25 dpm; in assay [11] (30 mg/kg), 294 ± 42 dpm.
On to `CNCC1(c2ccc3c(c2)OCO3)CCC(O)CC1` (stereo not drawn) [Compound 237, 4-(benzo[d][1,3]dioxol-5-yl)-4-((methylamino)methyl)cyclohexanol], for which the figures for the IC50 in assay [1] (setting [12]), in assay [2] and in [3] were 7300 nM, 9130 nM and more than 10000 nM, respectively.
`NCC1(c2ccc(F)c(F)c2)CCCCC1` [Compound 30, (1-(3,4-difluorophenyl)cyclohexyl)methanamine hydrochloride]: the IC50 is 4520 nM in assay [1] (setting [12]), 5870 nM in assay [2] and more than 10000 nM in assay [3].
As to `CN(C)CC1(c2ccc(Cl)c(Cl)c2)CCC(F)(F)CC1` [Compound 269, 1-(1-(3,4-dichlorophenyl)-4,4-difluorocyclohexyl)-N,N-dimethylmethanamine], the IC50 in assay [1] (setting [12]) was 787 nM; in assay [2], less than 1 nM; in assay [3], 36 nM.
In the case of `NCC1(c2ccc(OC(F)(F)F)cc2)CCCCC1` [Compound 15, (1-(4-(trifluoromethoxy)phenyl)cyclohexyl)methanamine], the IC50 in assay [1] (Human IC50 (nM) hSERT) was 1400 nM; in assay [2], more than 10000 nM; in assay [3], more than 10000 nM.
In the case of `CC(N(C)C)C1(c2ccc3ccccc3c2)CCCCC1` (single isomer, unassigned) [56 E2, N,N-dimethyl-1-(1-(naphthalen-2-yl)cyclohexyl)ethanamine], the IC50 came to 120 nM in [4] (setting [17]), 100 nM in [5] (setting [18]) and 79 nM in [6] (Rat IC50 (nM) rNET).
Take `NCC1(c2ccc(Cl)cc2Cl)CCCCC1` [Compound 38, (1-(2,4-dichlorophenyl)cyclohexyl)methanamine]: the IC50 in assay [1] (Human IC50 (nM) hSERT) is 472 nM; in assay [2], 9650 nM; in assay [3], more than 10000 nM.
In the case of `CC1(O)CCC(CN)(c2ccc3ccccc3c2)CC1` (stereo not drawn) [Compound 209, 4-(aminomethyl)-1-methyl-4-(naphthalen-2-yl)cyclohexanol], the IC50 in [1] (setting [12]) was 1160 nM; in assay [2] it was 4760 nM; in assay [3] it was more than 10000 nM.
Consider `NCC1(c2cccc3ccccc23)CCCCC1` [Compound 12, (1-(naphthalen-1-yl)cyclohexyl)methanamine], for which the figures for the IC50 in [4] (setting [13]) and in assay [5] (setting [14]) were 1100 nM and 1900 nM, respectively.
Turning to `CC1(O)CCC(CN)(c2ccc(OC(F)(F)F)cc2)CC1` (stereo not drawn) [Compound 219, 4-(aminomethyl)-1-methyl-4-(4-(trifluoromethoxy)phenyl)-cyclohexanol], the IC50 in assay [1] (setting [12]) was 269 nM; in assay [2], more than 10000 nM; in assay [3], more than 10000 nM.
In the case of `CNC[C@@]1(c2ccc3ccccc3c2)CCCC[C@H]1O` (single isomer, unassigned) [147 E1], the IC50 in assay [4] (setting [15]) is 18 nM; in [5] (setting [16]) it was 1200 nM; in assay [6] (read-out: Rat IC50 (nM) rNET) it was 370 nM.
